One assay has as its target T1, hM4 receptors (Homo sapiens, UniProt P08173).
T1 construct: expressed in transfected cells; host or cells: CHO cells
T1 sequence (P08173 1-479): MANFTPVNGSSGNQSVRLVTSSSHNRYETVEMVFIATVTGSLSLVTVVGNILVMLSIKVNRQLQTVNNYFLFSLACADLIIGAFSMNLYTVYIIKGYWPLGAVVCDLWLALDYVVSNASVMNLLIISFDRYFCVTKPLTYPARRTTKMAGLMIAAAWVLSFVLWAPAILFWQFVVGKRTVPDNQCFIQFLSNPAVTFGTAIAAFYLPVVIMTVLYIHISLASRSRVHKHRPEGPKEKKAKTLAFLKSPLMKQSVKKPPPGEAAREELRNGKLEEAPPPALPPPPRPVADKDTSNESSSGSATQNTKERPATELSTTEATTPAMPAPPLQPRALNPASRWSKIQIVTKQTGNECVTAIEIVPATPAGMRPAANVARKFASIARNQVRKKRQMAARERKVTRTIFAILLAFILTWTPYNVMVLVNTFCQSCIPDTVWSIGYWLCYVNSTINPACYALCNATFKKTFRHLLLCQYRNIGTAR
Kind of assay: Human M4 PAM pERK assay. Type of assay: cell-based. The conditions noted are these: CHO cells expressing hM4; with EC20 of acetylcholine (10 nM final). The procedure: (§1) Chinese hamster ovary (CHO) cells expressing either hM4 or rM4 receptors were frozen in assay ready vials (5×10^6 cells/vial) after bulking-up in culture. The day before an assay, vial(s) were thawed and cells seeded in 384 well white proxiplates at 1000/well for hM4 cells and at 2000/well for rM4 cells, in 10 μL of growth media (Hams/F12 with glutamax and 10% FCS) and incubated overnight at 37° C./5% CO2.
(§2) On the following morning, the growth media was removed by ‘flicking out’ over a bin, patting the inverted plate onto tissue, and then replacing with 10 μL of wash media (Hams/F12 with glutamax and 8 mM HEPES, NB: serum free). Then, the wash media was removed in the same way and replaced with 8 μL/well of the serum free media. Plates were then re-incubated for a further 4 hours at 37° C./5% CO2.
(§3) Compounds for testing were solubilized to 10 mM in DMSO and compound addition plates, consisting of ten-point concentration response curves (CRC) in duplicate points (10 μM top concentration, ½ log dilution series), were prepared by acoustic dispensing and the compound management group.
(§4) After the 4-hour incubation in serum free media, a 4 μL aliquot of the 3× compound solution containing an EC20 of acetylcholine (10 nM final concentration) was added to the cell plate using a 384 well plate to plate transfer. Then, the plate lid was replaced, and the cells incubated for 5 mins at 37° C./5% CO2. Following this final incubation, all cellular processes were stopped by the addition of 4 μL/well of lysis and blocking buffer and plates were incubated for 30 minutes at RT on an orbital shaker (gentle setting). Then, a final addition of 4 μL/well of antibody detection mix, containing both the Europium-Cryptate (donor) and d2 (acceptor) tagged detection components, was added followed by a further 2-hour incubation at RT, and then the plate was read using a TR-FRET (time resolved fluorescence resonance energy transfer) based protocol.

A further assay deals with T2, rM4 receptors (Rattus norvegicus, UniProt P08485).
T2 construct: expressed in transfected cells; host or cells: CHO cells
T2 sequence (P08485 1-478): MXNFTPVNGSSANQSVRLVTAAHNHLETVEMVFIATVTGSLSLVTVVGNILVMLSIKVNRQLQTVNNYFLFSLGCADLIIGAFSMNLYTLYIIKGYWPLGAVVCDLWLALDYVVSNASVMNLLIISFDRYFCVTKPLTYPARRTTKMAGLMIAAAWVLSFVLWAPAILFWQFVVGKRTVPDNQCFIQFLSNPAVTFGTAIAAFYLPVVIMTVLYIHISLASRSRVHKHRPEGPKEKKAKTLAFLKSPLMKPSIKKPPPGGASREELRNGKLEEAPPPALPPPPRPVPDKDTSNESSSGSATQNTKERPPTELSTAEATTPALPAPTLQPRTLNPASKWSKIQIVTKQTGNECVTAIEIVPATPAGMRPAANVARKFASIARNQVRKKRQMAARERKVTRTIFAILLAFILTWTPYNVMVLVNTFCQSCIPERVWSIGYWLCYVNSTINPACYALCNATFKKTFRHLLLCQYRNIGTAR
Put plainly: Rat M4 PAM pERK assay. The format is cell-based. To be noted: CHO cells expressing rM4; with EC20 of acetylcholine (10 nM final). The procedure:
as §1, §2, §3, §4

Molecules are shown by their SMILES.

Consider `Cc1cc(=O)n(C)c2c1CN(C(=O)CC1CC1c1ccc(C3COC3)cc1)C2` (single isomer, unassigned) [Compound I-16], for which the EC50 at hM4 receptors and at rM4 receptors was above 2000 nM throughout.
For `Cc1cc(=O)n(C)c2c1CN(C(=O)CC1CC1c1cccc(C3COC3)c1)C2` (single isomer, unassigned) [Compound I-14], the EC50 on hM4 receptors and at rM4 receptors was 100 to 500 nM throughout.
For the compound `Cc1cc(=O)n(C)c2c1CN(C(=O)CC1CC1c1ccnc(C(F)(F)F)c1)C2` (single isomer, unassigned) [Compound I-2], the results for the EC50 at hM4 receptors and on rM4 receptors were below 100 nM and 500 to 2000 nM, respectively.
On the same counts, the results for `Cc1c2c(n(C)c(=O)c1C)CN(C(=O)CC1CC1c1ccc(C(F)(F)F)cc1)C2` (single isomer, unassigned) [Compound I-20] are 100 to 500 nM and 100 to 500 nM.
On the same counts, the results for `Cc1c2c(n(C)c(=O)c1C)CN(C(=O)CC1CC1c1ccc(C(F)(F)F)cc1)C2` (single isomer, unassigned) [Compound I-19] are above 2000 nM and above 2000 nM.
On to `Cc1c2c(n(C)c(=O)c1F)CN(C(=O)CC1CC1c1cc(F)cc(F)c1)C2` (single isomer, unassigned) [Compound I-28], for which the EC50 at hM4 receptors and at rM4 receptors was below 100 nM throughout.
Turning to `COCCc1ccc(C2CC2CC(=O)N2Cc3c(C)cc(=O)n(C)c3C2)cc1` (centres unmarked) [Compound I-11], the EC50 at hM4 receptors is 100 to 500 nM; at rM4 receptors, 500 to 2000 nM.
On the same counts, the results for `Cc1cc(=O)n(C)c2c1CN(C(=O)CC1CC1c1ccc(S(=O)(=O)C(F)(F)F)cc1)C2` (single isomer, unassigned) [Compound I-9] are 100 to 500 nM and 100 to 500 nM.
For `Cc1cc(=O)n(C)c2c1CN(C(=O)CC1CC1c1ccc(C3COC3)cc1)C2` (single isomer, unassigned) [Compound I-17], in that order: below 100 nM and 100 to 500 nM.
On the same counts, the results for `Cc1cc(=O)n(C)c2c1CN(C(=O)CC1CC1c1ccc(C3COC3)cc1)C2` (centres unmarked) [Compound I-15] are 100 to 500 nM and 500 to 2000 nM.
On to `Cc1cc(=O)n(C)c2c1CN(C(=O)CC1CC1c1ccc(S(=O)(=O)C(F)(F)F)cc1)C2` (single isomer, unassigned) [Compound I-8], for which the EC50 on hM4 receptors and on rM4 receptors was above 2000 nM in each case.
On to `Cc1cc(=O)n(C)c2c1CN(C(=O)CC1CC1c1ccnc(C(F)(F)F)c1)C2` (single isomer, unassigned) [Compound I-1, 1,4-Dimethyl-6-[trans-(2-(2-(2-(trifluoromethyl)pyridin-4-yl)cyclopropyl)]acetyl)-1,5,6,7-tetrahydro-2H-pyrrolo[3,4-b]pyridin-2-one], for which, at hM4 receptors, the EC50 was above 2000 nM.

(Values after patent US20260209219A1, “SUBSTITUTED TETRAHYDROPYRROLO-PYRIDINONE COMPOUNDS AND THEIR USE IN TREATING MEDICAL CONDITIONS” (Karuna Therapeutics, Inc., priority 2022, published 2026).)
